The record followed here is patent US10160748B2 (AbbVie Inc., priority 2015, dated 2018).

The target of this test is TNFα trimer (Homo sapiens, UniProt P01375). The test is described as follows: TNFα FP Competitive Binding Assay. The note with it: FP binding assay; 20 nM TNFα trimer, 1 nM OregonGreen488 probe; read-out: TNF IC50. In short, it runs like this: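 Fluorescence polarization competition: 20 nM TNFα trimer with 1 nM fluorescein-labelled probe in HEPES/NaCl/EDTA/Triton X-100 buffer, compound in 12-point 1:3 dilutions (final top 338 μM or 100 μM). Incubated 18-24 h, background-subtracted mP read, variable-slope dose-response fitting.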

Some results are limits rather than exact numbers.

Sequence of TNFα trimer (P01375 77-233 limits assumed): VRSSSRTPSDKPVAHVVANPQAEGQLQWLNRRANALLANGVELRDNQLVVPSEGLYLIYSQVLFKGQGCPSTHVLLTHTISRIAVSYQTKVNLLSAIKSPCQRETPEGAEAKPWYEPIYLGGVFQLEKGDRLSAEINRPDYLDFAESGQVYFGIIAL

Consider `Cc1ccc(OC(F)F)c(Cn2c3cc(-c4cnc(N5CCN(C(=O)COP(=O)(O)O)[C@H](C)C5)nc4)ccc3c(=O)n2C)c1` [Example 69, (R)-2-(4-(5-(1-(2-(Difluoromethoxy)-5-methylbenzyl)-2-methyl-3-oxo-2,3-dihydro-1H-indazol-6-yl)pyrimidin-2-yl)-2-methyldihydrogen phosphate], for which the IC50 is under 1000 nM.
For `COc1c(-c2cnc(N3CCN(C(=O)CO)[C@H](C)C3)nc2)ccc2c(=O)n(C)n(Cc3ccccc3OC(F)F)c12` [Example 70, (R)-1-(2-(Difluoromethoxy)benzyl)-6-(2-(4-(2-hydroxyacetyl)-3-methylpiperazin-1-yl)pyrimidin-5-yl)-7-methoxy-2-methyl-1H-indazol-3(2H)-one], the IC50 is under 1000 nM.
To `C[C@@H]1CN(c2ncc(-c3ccc4c(=O)n(C)n(Cc5ccccc5Cl)c4c3C#N)cn2)CCN1C(=O)CO` [Example 71, (R)-1-(2-Chlorobenzyl)-6-(2-(4-(2-hydroxyacetyl)-3-methylpiperazin-1-yl)pyrimidin-5-yl)-2-methyl-3-oxo-2,3-dihydro-1H-indazole-7-carbonitrile] belongs 1000 to 10000 nM; to `Cn1cc(C(F)(F)F)c(Cn2c3cc(-c4cnc(N5CCN6C(=O)NC[C@H]6C5)nc4)ccc3c(=O)n2C)n1` [Example 72, (S)-7-(5-(2-methyl-1-((1-methyl-4-(trifluoromethyl)-1H-pyrazol-3-yl)methyl)-3-oxo-2,3-dihydro-1H-indazol-6-yl)pyrimidin-2-yl)hexahydroimidazo[1,5-a]pyrazin-3(2H)-one], 1000 to 10000 nM.
As for `CC(=O)N1CCN(c2ncc(-c3ccc4c(=O)n(C)n(Cc5nc(C)ccc5C(F)(F)F)c4n3)cn2)C[C@H]1C` [Example 73, (R)-6-(2-(4-Acetyl-3-methylpiperazin-1-yl)pyrimidin-5-yl)-2-methyl-1-((6-methyl-3-(trifluoromethyl)pyridin-2-yl)methyl)-1H-pyrazolo[3,4-b]pyridin-3(2H)-one], the IC50 is under 1000 nM.
To `CC(=O)N1CCN(c2ncc(-c3ccc4c(=O)n(C)n(Cc5nc(C)ccc5C(F)(F)F)c4c3)cn2)[C@H](C)C1` [Example 74, (R)-6-(2-(4-Acetyl-2-methylpiperazin-1-yl)pyrimidin-5-yl)-2-methyl-1-((6-methyl-3-(trifluoromethyl)pyridin-2-yl)methyl)-1H-indazol-3(2H)-one] belongs under 1000 nM.
For the compound `CC(=O)N1CCN(c2ncc(-c3ccc4c(=O)n(C)n(Cc5nc(C)ccc5OC(F)F)c4c3)cn2)C[C@H]1C` [Example 75, (R)-6-(2-(4-Acetyl-3-methylpiperazin-1-yl)pyrimidin-5-yl)-1-((3-(difluoromethoxy)-6-methylpyridin-2-yl)methyl)-2-methyl-1H-indazol-3(2H)-one], the IC50 was under 1000 nM.
With `Cc1ccc(OC(F)F)c(Cn2c3cc(-c4cnc(N5CCN(C(=O)CO)[C@H](C)C5)nc4)ccc3c(=O)n2C)n1` [Example 76, (R)-1-((3-(Difluoromethoxy)-6-methylpyridin-2-yl)methyl)-6-(2-(4-(2-hydroxyacetyl)-3-methylpiperazin-1-yl)pyrimidin-5-yl)-2-methyl-1H-indazol-3(2H)-one], the IC50 was under 1000 nM.
Take `COCc1cccc(OC(F)F)c1Cn1c2cc(-c3cnc(C(C)(C)O)nc3)ccc2c(=O)n1C` [Example 77, 1-(2-(Difluoromethoxy)-6-(methoxymethyl)benzyl)-6-(2-(2-hydroxypropan-2-yl)pyrimidin-5-yl)-2-methyl-1H-indazol-3(2H)-one]: the IC50 fell in the range of 1000 to 10000 nM.
With `C[C@@H]1CN(C(=O)CO)CCN1c1ncc(-c2ccc3c(=O)n(C)n(Cc4cc(CC#N)ccc4OC(F)F)c3c2)cn1` [Example 78, (R)-2-(4-(difluoromethoxy)-3-((6-(2-(4-(2-hydroxyacetyl)-2-methylpiperazin-1-yl)pyrimidin-5-yl)-2-methyl-3-oxo-2,3-dihydro-1H-indazol-1-yl)methyl)phenyl)acetonitrile] the figure was under 1000 nM.
`Cn1c(=O)c2ccc(-c3cnc(N4CCN5C(=O)OC[C@H]5C4)nc3)cc2n1Cc1cc(CC#N)ccc1OC(F)F` [Example 79, (R)-2-(4-(Difluoromethoxy)-3-((2-methyl-3-oxo-6-(2-(3-oxotetrahydro-1H-oxazolo[3,4-a]pyrazin-7(3H)-yl)pyrimidin-5-yl)-2,3-dihydro-1H-indazol-1-yl)methyl)phenyl)acetonitrile]: the IC50 was under 1000 nM.
As to `Cc1ccc(OC(F)F)c(Cn2c3nc(-c4cnc(N5CCN(C(=O)CO)C[C@H]5C)nc4)ccc3c(=O)n2C)c1` [Example 80, (R)-1-(2-(Difluoromethoxy)-5-methylbenzyl)-6-(2-(4-(2-hydroxyacetyl)-2-methylpiperazin-1-yl)pyrimidin-5-yl)-2-methyl-1H-pyrazolo[3,4-b]pyridin-3(2H)-one], the IC50 is under 1000 nM.
In the case of `Cc1ccc(Cl)c(Cn2c3nc(-c4cnc(N5CCN(C(=O)CO)C[C@H]5C)nc4)ccc3c(=O)n2C)c1` [Example 81, (R)-1-(2-Chloro-5-methylbenzyl)-6-(2-(4-(2-hydroxyacetyl)-2-methylpiperazin-1-yl)pyrimidin-5-yl)-2-methyl-1H-pyrazolo[3,4-b]pyridin-3(2H)-one], the IC50 was under 1000 nM.
In the case of `CC(=O)N1CCN(c2ncc(-c3ccc4c(=O)n(C)n(Cc5ccc(C)cc5SC(F)F)c4c3)cn2)C[C@H]1C` [Example 82, (R)-6-(2-(4-Acetyl-3-methylpiperazin-1-yl)pyrimidin-5-yl)-1-(2-((difluoromethyl)thio)-4-methylbenzyl)-2-methyl-H-indazol-3(2H)-one], the IC50 is under 1000 nM.
Consider `CN1CCCC(Nc2ccc(Cl)c(Cn3c4cc(-c5cnc(C(C)(C)O)nc5)ccc4c(=O)n3C)c2)C1=O` (stereo not drawn) [Example 83, 1-(2-Chloro-5-((1-methyl-2-oxopiperidin-3-yl)amino)benzyl)-6-(2-(2-hydroxypropan-2-yl)pyrimidin-5-yl)-2-methyl-1H-indazol-3(2H)-one], for which the IC50 was in the range of 1000 to 10000 nM.
To `Cn1c(=O)c2ccc(-c3cnc(N4CCN5C(=O)NC[C@@H]5C4)nc3)cc2n1Cc1nc(CO)ccc1OC(F)F` [Example 84] belongs under 1000 nM.
With `Cc1ccc(OC(F)F)c(Cn2c3cc(-c4cnc(C5(C)CCNC5)nc4)ccc3c(=O)n2C)c1` (stereo not drawn) [Example 87, 1-(2-(Difluoromethoxy)-5-methylbenzyl)-2-methyl-6-(2-(3-methylpyrrolidin-3-yl)pyrimidin-5-yl)-1H-indazol-3(2H)-one] the figure was under 1000 nM; with `Cc1ccc(OC(F)F)c(Cn2c3cc(-c4cnc(C5(C)CCN(C)C5)nc4)ccc3c(=O)n2C)c1` (stereo not drawn) [Example 88, 1-(2-(Difluoromethoxy)-5-methylbenzyl)-6-(2-(1,3-dimethylpyrrolidin-3-yl)pyrimidin-5-yl)-2-methyl-1H-indazol-3(2H)-one], 1000 to 10000 nM.
With `Cc1ccc(OC(F)F)c(Cn2c3cc(-c4ccc(C(C)(C)N)nc4)c(F)cc3c(=O)n2C)c1` [Example 89, 6-(6-(2-Aminopropan-2-yl)pyridin-3-yl)-1-(2-(difluoromethoxy)-5-methylbenzyl)-5-fluoro-2-methyl-1H-indazol-3(2H)-one 2,2,2-trifluoroacetate] the figure was under 1000 nM; with `COCc1ccc(OC(F)F)c(Cn2c3cc(-c4cnc(N5CCN(C(C)=O)CC5)nc4)ccc3c(=O)n2C)c1` [Example 90, 6-(2-(4-Acetylpiperazin-1-yl)pyrimidin-5-yl)-1-(2-(difluoromethoxy)-5-(methoxymethyl)benzyl)-2-methyl-1H-indazol-3(2H)-one], 1000 to 10000 nM.
With `Cn1c(=O)c2ccc(-c3cnc(C4(O)CN(C(=O)CO)C4)nc3)cc2n1Cc1ccccc1OC(F)F` [Example 91, 1-(2-(Difluoromethoxy)benzyl)-6-(2-(3-hydroxy-1-(2-hydroxyacetyl)azetidin-3-yl)pyrimidin-5-yl)-2-methyl-1H-indazol-3(2H)-one], the IC50 lay within 1000 to 10000 nM.
To `Cn1c(=O)c2ccc(-c3cnc(C(C)(C)O)nc3)cc2n1Cc1cc(Cn2cn[nH]c2=O)ccc1OC(F)F` [Example 92, 1-(2-(Difluoromethoxy)-((5-oxo-1H-1,2,4-triazol-4(5H)-yl)methy)benzyl)-6-(2-(2-hydroxypropan-2-yl)pyrimidin-5-yl)-2-methyl-1H-indazol-3(2H)-one] belongs 1000 to 10000 nM; to `Cn1c(=O)c2ccc(-c3cnc(N4CCN5C(=O)NC[C@H]5C4)nc3)cc2n1Cc1cc(Cn2cnnc2)ccc1OC(F)F` [Example 93, (S)-7-(5-(1-(5-((4H-1,2,4-triazol-4-yl)methyl)-2-(difluoromethoxy)benzyl)-2-methyl-3-oxo-2,3-dihydro-1H-indazol-6-yl)pyrimidin-2-yl)hexahydroimidazo[1,5-a]pyrazin-3(2H)-one], under 1000 nM.
Turning to `CCN(Cc1ccc(OC(F)F)c(Cn2c3cc(-c4cnc(N5CCN(C(C)=O)[C@H](C)C5)nc4)ccc3c(=O)n2C)c1)C(C)=O` [Example 94, (R)—N-(3-((6-(2-(4-Acetyl-3-methylpiperazin-1-yl)pyrimidin-5-yl)-2-methyl-3-oxo-2,3-dihydro-1H-indazol-1-yl)methyl)-4-(difluoromethoxy)benzyl)-N-ethylacetamide], the IC50 was in the range of 1000 to 10000 nM.
To `Cc1ccc(OC(F)F)c(Cn2c3nc(-c4cnc(C(C)(C)O)nc4C)ccc3c(=O)n2C)c1` [Example 95, 1-(2-(Difluoromethoxy)-5-methylbenzyl)-6-(2-(2-hydroxypropan-2-yl)-4-methylpyrimidin-5-yl)-2-methyl-1,2-dihydro-3H-pyrazolo[3,4-b]pyridin-3-one] belongs 1000 to 10000 nM.
Consider `Cc1ccc(OC(F)F)c(Cn2c3nc(-c4cnc(C(C)(C)O)nc4C)c(F)cc3c(=O)n2C)c1` [Example 98, 1-(2-(Difluoromethoxy)-5-methylbenzyl)-5-fluoro-6-(2-(2-hydroxypropan-2-yl)-4-methylpyrimidin-5-yl)-2-methyl-1,2-dihydro-3H-pyrazolo[3,4-b]pyridin-3-one], for which the IC50 is under 1000 nM.
To `Cc1ccc(Cl)c(Cn2c3nc(-c4cnc(C(C)(C)O)nc4C)ccc3c(=O)n2C)c1` [Example 99, 1-(2-Chloro-5-methylbenzyl)-6-(2-(2-hydroxypropan-2-yl)-4-methylpyrimidin-5-yl)-2-methyl-1,2-dihydro-3H-pyrazolo[3,4-b]pyridin-3-one] belongs under 1000 nM.
